From patent US11739098B2 (BRISTOL-MYERS SQUIBB COMPANY, priority 2017, dated 2023)
pIC50: −log10 of the molar value.

Assays:
Type in all cases: cell-based
[1] = target: T1, human TLR9 (Homo sapiens, UniProt Q9NR96); experiment: TLR9 inhibition reporter assay (HEK-Blue cells, SEAP reporter, ODN2006 stimulation); conditions: HEK-Blue cells overexpressing human TLR9, SEAP reporter, ODN2006 5 nM
T1 construct: host or cells: HEK-Blue cells (HEK293-derived reporter line)
T1 sequence (Q9NR96 26-1032): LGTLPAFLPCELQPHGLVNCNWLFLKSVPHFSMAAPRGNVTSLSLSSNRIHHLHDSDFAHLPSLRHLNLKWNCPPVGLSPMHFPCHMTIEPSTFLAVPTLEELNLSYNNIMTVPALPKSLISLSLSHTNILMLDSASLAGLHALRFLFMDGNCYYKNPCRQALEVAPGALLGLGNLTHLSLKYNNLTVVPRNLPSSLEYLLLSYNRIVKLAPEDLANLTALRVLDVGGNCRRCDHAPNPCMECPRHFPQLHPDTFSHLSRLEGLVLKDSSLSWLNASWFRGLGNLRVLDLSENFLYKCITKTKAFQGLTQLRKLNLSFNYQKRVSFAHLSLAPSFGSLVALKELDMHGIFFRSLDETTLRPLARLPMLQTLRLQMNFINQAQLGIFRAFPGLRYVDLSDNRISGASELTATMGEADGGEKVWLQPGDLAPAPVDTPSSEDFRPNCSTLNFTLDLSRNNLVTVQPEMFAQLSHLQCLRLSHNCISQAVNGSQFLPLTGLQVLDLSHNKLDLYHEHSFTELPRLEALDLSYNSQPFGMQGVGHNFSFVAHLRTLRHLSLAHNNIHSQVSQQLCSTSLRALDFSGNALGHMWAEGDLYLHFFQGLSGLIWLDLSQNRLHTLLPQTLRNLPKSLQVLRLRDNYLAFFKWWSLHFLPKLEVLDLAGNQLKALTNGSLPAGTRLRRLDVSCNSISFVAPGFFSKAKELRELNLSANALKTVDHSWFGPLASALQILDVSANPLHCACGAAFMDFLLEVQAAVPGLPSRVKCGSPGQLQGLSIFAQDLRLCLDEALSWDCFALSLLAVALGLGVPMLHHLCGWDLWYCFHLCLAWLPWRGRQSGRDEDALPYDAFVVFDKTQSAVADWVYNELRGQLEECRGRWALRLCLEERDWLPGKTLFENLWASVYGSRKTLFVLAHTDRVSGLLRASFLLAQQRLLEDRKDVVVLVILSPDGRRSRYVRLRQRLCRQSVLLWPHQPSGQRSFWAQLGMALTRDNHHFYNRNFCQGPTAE
Outline: (§1)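 HEK-Blue cells overexpressing the receptor, with NF-κB/AP-1-driven SEAP, were pre-treated 30 min at room temperature with compound (0.05 nM–50 μM), then stimulated with gardiquimod 7.5 μM (TLR7), R848 15.9 μM (TLR8) or ODN2006 5 nM (TLR9). SEAP was read after 22 h at 37 °C as percent inhibition.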

[2] = target: T2, human TLR7 (Homo sapiens, UniProt Q9NYK1); experiment: TLR7 inhibition reporter assay (HEK-Blue cells, SEAP reporter, gardiquimod stimulation); conditions: HEK-Blue cells overexpressing human TLR7, SEAP reporter, gardiquimod 7.5 μM
T2 construct: host or cells: HEK-Blue cells (HEK293-derived reporter line)
T2 sequence (Q9NYK1 27-1049): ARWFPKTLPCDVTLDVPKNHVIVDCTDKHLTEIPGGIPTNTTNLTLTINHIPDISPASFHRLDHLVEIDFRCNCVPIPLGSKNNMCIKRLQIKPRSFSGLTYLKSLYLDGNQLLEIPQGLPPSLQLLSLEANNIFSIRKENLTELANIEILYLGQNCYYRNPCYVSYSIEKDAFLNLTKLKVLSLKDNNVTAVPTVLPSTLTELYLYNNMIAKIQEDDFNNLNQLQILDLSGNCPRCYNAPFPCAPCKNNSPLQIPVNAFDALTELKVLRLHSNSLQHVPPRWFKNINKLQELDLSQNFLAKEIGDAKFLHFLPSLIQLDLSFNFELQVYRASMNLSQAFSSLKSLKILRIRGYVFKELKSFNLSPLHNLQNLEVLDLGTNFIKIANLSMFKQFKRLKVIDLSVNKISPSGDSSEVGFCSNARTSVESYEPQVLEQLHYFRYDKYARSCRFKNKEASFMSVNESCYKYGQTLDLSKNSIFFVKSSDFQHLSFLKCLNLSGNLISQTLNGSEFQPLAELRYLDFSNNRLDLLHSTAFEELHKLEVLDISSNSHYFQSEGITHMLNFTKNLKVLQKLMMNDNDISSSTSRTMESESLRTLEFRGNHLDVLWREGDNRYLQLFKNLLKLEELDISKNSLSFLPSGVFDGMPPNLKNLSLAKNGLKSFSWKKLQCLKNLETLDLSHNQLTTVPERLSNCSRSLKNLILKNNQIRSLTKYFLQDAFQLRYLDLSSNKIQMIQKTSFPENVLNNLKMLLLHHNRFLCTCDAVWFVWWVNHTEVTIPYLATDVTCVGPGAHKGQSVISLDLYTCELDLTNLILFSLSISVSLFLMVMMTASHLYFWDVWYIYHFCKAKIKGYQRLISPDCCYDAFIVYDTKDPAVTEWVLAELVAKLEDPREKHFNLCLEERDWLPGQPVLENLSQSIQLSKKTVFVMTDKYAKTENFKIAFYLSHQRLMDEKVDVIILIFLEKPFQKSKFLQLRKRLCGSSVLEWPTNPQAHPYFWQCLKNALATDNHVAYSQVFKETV
Outline: as §1

[3] = target: T3, human TLR8 (Homo sapiens, UniProt Q9NR97); experiment: TLR8 inhibition reporter assay (HEK-Blue cells, SEAP reporter, R848 stimulation); conditions: HEK-Blue cells overexpressing human TLR8, SEAP reporter, R848 15.9 μM
T3 construct: host or cells: HEK-Blue cells (HEK293-derived reporter line)
T3 sequence (Q9NR97 27-1041): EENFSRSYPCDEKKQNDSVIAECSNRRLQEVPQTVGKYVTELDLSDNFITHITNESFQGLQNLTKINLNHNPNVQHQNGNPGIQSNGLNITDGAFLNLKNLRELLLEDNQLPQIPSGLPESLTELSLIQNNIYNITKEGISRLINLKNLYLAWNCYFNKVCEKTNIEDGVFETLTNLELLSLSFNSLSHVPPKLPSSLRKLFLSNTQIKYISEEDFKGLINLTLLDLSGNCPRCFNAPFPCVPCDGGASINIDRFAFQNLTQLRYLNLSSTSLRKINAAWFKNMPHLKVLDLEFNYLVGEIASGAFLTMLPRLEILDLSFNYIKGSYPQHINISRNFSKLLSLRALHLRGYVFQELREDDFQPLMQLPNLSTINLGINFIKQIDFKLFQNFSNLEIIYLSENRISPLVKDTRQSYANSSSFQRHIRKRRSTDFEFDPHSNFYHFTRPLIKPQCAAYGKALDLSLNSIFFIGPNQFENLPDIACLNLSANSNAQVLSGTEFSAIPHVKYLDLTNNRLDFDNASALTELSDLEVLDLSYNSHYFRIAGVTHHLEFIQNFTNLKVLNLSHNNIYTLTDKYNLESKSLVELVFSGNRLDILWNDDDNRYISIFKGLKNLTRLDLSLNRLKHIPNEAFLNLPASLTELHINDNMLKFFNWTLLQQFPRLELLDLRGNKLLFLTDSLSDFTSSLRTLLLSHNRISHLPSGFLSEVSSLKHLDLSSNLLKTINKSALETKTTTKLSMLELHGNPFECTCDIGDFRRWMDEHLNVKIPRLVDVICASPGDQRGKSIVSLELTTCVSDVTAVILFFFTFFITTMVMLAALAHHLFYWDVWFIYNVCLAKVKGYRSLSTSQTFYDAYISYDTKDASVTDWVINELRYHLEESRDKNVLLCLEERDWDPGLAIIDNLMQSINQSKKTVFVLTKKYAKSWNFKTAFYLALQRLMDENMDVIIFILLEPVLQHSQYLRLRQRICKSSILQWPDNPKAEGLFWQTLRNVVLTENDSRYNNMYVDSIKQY
Outline: as §1

SMILES | pIC50 [1] | pIC50 [2] | pIC50 [3]
COc1cc(-c2[nH]c3ccc(C4CCN(CC(C)(C)O)CC4)cc3c2C(C)C)cc2nccn12 [Example 758, 1-(4-(3-isopropyl-2-(5-methoxyimidazo[1,2-a]pyridin-7-yl)-1H-indol-5-yl)piperidin-1-yl)-2-methylpropan-2-ol] | 6.00 to 7.00 | 6.00 to 7.00 | > 7.00
COc1cc(CN(C)C)cc(CN2CCC(c3ccc4[nH]c(-c5ccnc6[nH]ncc56)c(C(C)C)c4c3)CC2)c1O [Example 924, 4-((dimethylamino)methyl)-2-((4-(3-isopropyl-2-(1H-pyrazolo[3,4-b]pyridin-4-yl)-1H-indol-5-yl)piperidin-1-yl)methyl)-6-methoxyphenol] | 6.00 to 7.00 | > 7.00 | > 7.00
CC(C)c1c(-c2ccnc3[nH]ncc23)[nH]c2ccc(C3CCN(C4CCNCC4F)CC3)cc12 (stereo not drawn) [Example 827, 4-(5-(3′-fluoro-[1,4′-bipiperidin]-4-yl)-3-isopropyl-1H-indol-2-yl)-1H-pyrazolo[3,4-b]pyridine] | 6.00 to 7.00 | > 7.00 | > 7.00
COCCNC(=O)c1cn2cc(-c3[nH]c4ccc(C5CCNCC5)cc4c3C(C)C)cc(C)c2n1 [Example 269, 6-(3-isopropyl-5-(piperidin-4-yl)-1H-indol-2-yl)-N-(2-methoxyethyl)-8-methylimidazo[1,2-a]pyridine-2-carboxamide] | 6.00 to 7.00 | > 7.00 | > 7.00
CNCCN1CCC(c2ccc3[nH]c(-c4ccnc5[nH]ncc45)c(C(C)C)c3c2)C(F)(F)C1 (stereo not drawn) [Example 674, 2-(3,3-difluoro-4-(3-isopropyl-2-(1H-pyrazolo[3,4-b]pyridin-4-yl)-1H-indol-5-yl)piperidin-1-yl)-N-methylethan-1-amine] | 6.00 to 7.00 | > 7.00 | > 7.00
CCc1c(-c2cnc3cncc(OC)n23)[nH]c2ccc(C3CCNCC3)cc12 [Example 25, 3-(3-ethyl-5-(piperidin-4-yl)-1H-indol-2-yl)-5-methoxyimidazo[1,2-a]pyrazine] | 6.00 to 7.00 | 4.30 to 6.00 | 4.30 to 6.00
CCc1c(-c2ccnc3[nH]ncc23)[nH]c2ccc(C3CCN(Cc4coc(C)n4)CC3)cc12 [Example 917, 4-((4-(3-ethyl-2-(1H-pyrazolo[3,4-b]pyridin-4-yl)-1H-indol-5-yl)piperidin-1-yl)methyl)-2-methyloxazole] | 4.30 to 6.00 | 6.00 to 7.00 | > 7.00
CCc1c(-c2ccc3[nH]c(=O)oc3c2)[nH]c2ccc(C3CCNCC3)cc12 [Example 167, 6-(3-ethyl-5-(piperidin-4-yl)-1H-indol-2-yl)benzo[d]oxazol-2(3H)-one] | 6.00 to 7.00 | 6.00 to 7.00 | 6.00 to 7.00
CCCN1CCC(c2ccc3[nH]c(-c4ccc5c(c4)COC5=O)c(C(C)C)c3c2)CC1 [Example 953, 5-(3-isopropyl-5-(1-propylpiperidin-4-yl)-1H-indol-2-yl)isobenzofuran-1(3H)-one] | 4.30 to 6.00 | > 7.00 | > 7.00
CCc1c[nH]c2nccc(-c3[nH]c4ccc(C5CCNCC5)cc4c3C)c12 [Example 219, 4-(3-methyl-5-(piperidin-4-yl)-1H-indol-2-yl)-3-ethyl-1H-pyrrolo[2,3-b]pyridine] | 6.00 to 7.00 | 6.00 to 7.00 | 6.00 to 7.00
CNC(=O)CN1CCC(c2ccc3[nH]c(-c4ccn5nncc5c4)c(C(C)C)c3c2)CC1 [Example 303, 2-(4-(2-([1,2,3]triazolo[1,5-a]pyridin-5-yl)-3-isopropyl-1H-indol-5-yl)piperidin-1-yl)-N-methylacetamide] | 4.30 to 6.00 | > 7.00 | 6.00 to 7.00
Cc1cn2cc(-c3[nH]c4ccc(C5CCNCC5)cc4c3C(C)C)ccc2n1 [Example 115, 6-(3-isopropyl-5-(piperidin-4-yl)-1H-indol-2-yl)-2-methylimidazo[1,2-a]pyridine] | 6.00 to 7.00 | > 7.00 | 6.00 to 7.00
COc1c(C)c(-c2[nH]c3ccc(C4CCN(C5COC5)CC4)cc3c2C(C)C)nn2ncnc12 [Example 731, 6-(3-isopropyl-5-(1-(oxetan-3-yl)piperidin-4-yl)-1H-indol-2-yl)-8-methoxy-7-methyl-[1,2,4]triazolo[1,5-b]pyridazine] | 4.30 to 6.00 | > 7.00 | > 7.00
CC(C)c1c(-c2ccn3nnnc3c2)[nH]c2ccc(C3CCNCC3)cc12 [Example 82, 7-(3-isopropyl-5-(piperidin-4-yl)-1H-indol-2-yl)tetrazolo[1,5-a]pyridine] | 4.30 to 6.00 | > 7.00 | 6.00 to 7.00
CNC(=O)CN1CCC(c2ccc3[nH]c(-c4ccc5ncnn5n4)c(C(C)C)c3c2)CC1 [Example 277, 2-(4-(2-([1,2,4]triazolo[1,5-b]pyridazin-6-yl)-3-isopropyl-1H-indol-5-yl)piperidin-1-yl)-N-methylacetamide] | 4.30 to 6.00 | > 7.00 | > 7.00
